Test results published in patent publication US20240148679A1, “METHODS AND COMPOSITIONS RELATED TO TREATMENT AND PREVENTION OF CANCER BY INHIBITION OF DGAT1 AND DGAT2” (Ohio State Innovation Foundation, priority 2019, published 2024).

Test system: GBM cells
Test: Lipid droplet (BODIPY 493/503) number and TG (TLC) levels in GBM cells
Assay type: cell-based, human
Details: 24 hours; for LDs/TG levels: concurrently inhibiting DGAT1 and DGAT2 (A-922500 + PF-06424439), vs DGAT1 inhibition alone; for number of LDs and levels of TG: single inhibitor, 20 μg/ml, all examined GBM cells
Protocol: (A) RT-qPCR analysis of DGAT1 vs. DGAT2 mRNA expression in GBM cells (U251 and GBM30) and in liver cancer cell line (HepG2). The results are shown as mean±SD (n=3). Statistical significance was determined by a paired Student's t-test. *P<0.01; n.s., not significant. (B) Representative fluorescence imaging of LDs stained with BODIPY 493/503 (green) (upper panels) and TLC analysis of TG levels (lower panels) in GBM and liver cancer cells after treatments with the DGAT1 inhibitor A-922500 (20 μg/ml) or DGAT2 inhibitor PF-06424439 ([…]) alone or in combination for 24 hr. Nuclei were stained with Hoechst 33342 (blue). Scale bar, 10 m. LDs were quantified by the ImageJ software in more than 30 cells in each treatment group (mean±SEM). TG levels were quantified by the ImageJ software and normalized to the untreated control group (mean±SD, n=3). Statistical significance was determined by one-way ANOVA. * P<0.001; #P<0.05. (C) Percentage of dead GBM or liver cancer cells after treatment with DGAT1 or DGAT2 inhibitors alone or in combination for 3 days as in panel B. Live and dead cells were counted after trypan blue staining (mean SD, n=3). Statistical significance was determined by one-way ANOVA. * P<0.0001. (D) Western blot analysis of DGAT1 expression in membrane extracts from GBM and liver cancer cells after infection with shRNA-expressing lentivirus against DGAT1 for 48 hr. […] Statistical significance was determined by one-way ANOVA. * P<0.01. (F) Representative fluorescence images of LDs stained with BODIPY 493/503 (upper panels) and TLC analysis of TG levels (lower panels) in GBM and liver cancer cells after lentivirus-mediated shRNA knockdown of DGAT1 or DGAT2 alone or in combination for 48 hr. […] Quantification and significance analysis of LDs and TG levels in different groups were the same as in panel B. * P<0.001; #P<0.05. […] Cell death percentage and significance were determined as in panel c (mean±SD, n=3). *P<0.0001; #P<0.001.
(A) RT-qPCR analysis of DGAT1 vs. DGAT2 mRNA levels in different types of cancer cell lines using 3 pairs of different primers. […] Statistical significance was determined by Student's t-test. *P<0.01. (B) Representative fluorescence imaging of LDs stained with BODIPY 493/503 (green) (upper panels) and TLC analysis of TG levels (lower panels) in GBM cells after treatment with the DGAT1 inhibitor A-922500 (20 μg/ml) or DGAT2 inhibitor PF-06424439 (20 μg/ml) for 24 hr. […] LDs were quantified by the ImageJ software in more than 30 cells in each treatment group (mean±SEM). TG levels were quantified by the ImageJ software and normalized to control group (mean±SD, n=3). Statistical significance was determined by one-way ANOVA. *P<0.001; #P<0.05. […] Statistical significance was determined by one-way ANOVA. *P<0.001. […]

Row | SMILES | LDs/TG levels | number of LDs and levels of TG
1 | O=C(Nc1ccccc1)Nc1ccc(-c2ccc(C(=O)[C@@H]3CCC[C@H]3C(=O)O)cc2)cc1 [A-922500] | did not result in further reduction | dramatically reduced the number of LDs
2 | CS(=O)(=O)O.O=C([C@@H]1CCCN(c2ccc3[nH]c(C4(n5cc(Cl)cn5)CC4)nc3n2)C1)N1CCCC1 [PF-06424439] | did not result in further reduction | minor reduction
